In patent US7994182B2 (Pecsi Tudomanyegyetem, priority 2003, dated 2011):
Read-outs that look alike come from different tables or passages of the source.

Assays:
[1] = system: WRL-68 human liver cell line; assay: Protecting effect against hydrogen peroxide induced cell death in WRL-68 cells (MTT cell survival); format: cell-based; settings: 3 hours; for IC50: read-out: IC50: concentration where the hydrogen peroxide induced cell death was inhibited by 50%; for Emax: read-out: Maximum protection
Experimental: The protecting effect of 4-quinazolinone derivatives against cell death caused by hydrogen peroxide in WRL-68 human liver cell line.
The human WRL-68 cell line was obtained from American Type Culture Collection (Rockville, Md.). The one layer thick cell lines were cultured in Dulbecco's modified. Eagle medium containing 1% antibiotic-antimycotic solution and 10% fetal calf serum under humid 37° C. air containing 5% CO2. The cells were separated every three days.
The cells were transformed to a 96-well plate with 2.5×10^4 cells/well initial concentration and were cultured overnight in humid 37° C. air containing 5% CO2. The following day 0.3 mM hydrogen peroxide was added to the medium either by itself or in the presence of one of the protecting agents. Three hours later the medium was removed and 0.5% water-soluble mitochondria stain, 3-(4,5-dimethylthiazol-2-yl)-2;5-diphenyl-tetrazolium bromide (MTT^+) was added to the cells. […] The optical density was determined at 550 nm by Anthos Labtech 2010 ELISA Reader (Wien, Austria). In every experiment at least 6 parallel samples were treated and the experiments were repeated three times. Table 1 presents the concentrations (given in μM) where the hydrogen peroxide induced cell death was inhibited by 50%.

[2] = biological target: T1, poly(ADP-ribose) polymerase enzyme isolated from rat liver (Rattus norvegicus, UniProt P27008); assay: In vitro inhibitory effect on PARP enzyme ([3H]-NAD+ incorporation); format: biochemical; settings: 1 mM [3H]-NAD+, 15 minutes incubation
T1 construct: The poly(ADP-ribose) polymerase enzyme was isolated from rat liver as described earlier; from tissue; host or cells: rat liver
Experimental: The In Vitro Inhibitory Effect of 4-quinazolinone Derivatives on PARP Enzyme
The poly(ADP-ribose) polymerase enzyme was isolated from rat liver as described earlier. The putative inhibitory effect of 4-quinazolinone derivatives was examined in this experiment. The activity of the PARP enzyme was determined in 130 μl solution containing 100 mM Tris-HCl buffer (pH 8.0), 10 mM MgCl2, 10% glycerol, 1.5 mM DTT, 1 mM [Adenin-2,8-^3H]-NAD^+ (4,500 cpm/nmol), 10 μg activated DNA and 10 μg histone. With or without the presence of 4-quinazolinone derivatives, the samples were incubated for 15 minutes, then the reactions were brought to stop by the addition of 8% trichloroacetic acid. After the addition of 0.5 mg albumin the samples were allowed to precipitate for 20 minutes on ice, then the insoluble substances were filtered on a glass filter, collected and washed five times with 5% perchloric acid. The protein-bound radioactivity was measured by LS-200 Beckman scintillation counter, the data is presented in μM in Table 2.

[3] = Homo sapiens, WRL68, 0.3 mM hydrogen peroxide

T1 sequence (P27008 whole entry): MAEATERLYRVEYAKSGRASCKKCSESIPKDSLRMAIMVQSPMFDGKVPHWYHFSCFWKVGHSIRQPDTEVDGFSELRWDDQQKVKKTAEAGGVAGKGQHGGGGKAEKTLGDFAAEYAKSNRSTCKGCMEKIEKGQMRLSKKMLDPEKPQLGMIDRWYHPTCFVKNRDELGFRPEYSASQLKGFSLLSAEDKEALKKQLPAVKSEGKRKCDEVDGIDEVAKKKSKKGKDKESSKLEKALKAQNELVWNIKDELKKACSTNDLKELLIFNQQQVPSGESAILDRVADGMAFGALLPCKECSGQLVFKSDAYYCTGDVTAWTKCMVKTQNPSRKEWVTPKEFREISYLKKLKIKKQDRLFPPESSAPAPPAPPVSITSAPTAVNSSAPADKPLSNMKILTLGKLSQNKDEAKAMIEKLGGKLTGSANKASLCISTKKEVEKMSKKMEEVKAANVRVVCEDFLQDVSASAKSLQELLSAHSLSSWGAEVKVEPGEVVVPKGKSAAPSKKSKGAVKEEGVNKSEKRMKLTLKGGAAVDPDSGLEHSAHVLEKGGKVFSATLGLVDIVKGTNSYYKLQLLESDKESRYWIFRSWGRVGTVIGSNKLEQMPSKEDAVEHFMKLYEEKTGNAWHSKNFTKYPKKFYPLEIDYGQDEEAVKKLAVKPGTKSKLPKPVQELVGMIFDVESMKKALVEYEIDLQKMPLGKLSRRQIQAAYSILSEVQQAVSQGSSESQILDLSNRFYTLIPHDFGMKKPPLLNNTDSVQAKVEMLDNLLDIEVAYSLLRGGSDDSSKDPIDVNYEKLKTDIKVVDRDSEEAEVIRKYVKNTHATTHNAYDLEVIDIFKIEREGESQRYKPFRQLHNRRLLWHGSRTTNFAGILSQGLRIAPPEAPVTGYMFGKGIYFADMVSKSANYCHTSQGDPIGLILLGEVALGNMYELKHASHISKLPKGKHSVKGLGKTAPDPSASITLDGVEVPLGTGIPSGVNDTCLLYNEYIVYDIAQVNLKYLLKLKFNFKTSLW

SMILES	IC50 [1, 3]	Emax [1, 3]	also measured
Cc1nc2ccccc2c(=O)[nH]1 [Compound 2, 2-methylquinazolin-4(3H)one, reference compound]	4 µM	54%	
O=c1[nH]c(S)nc2ccccc12 [Compound 3, 2-mercaptoquinazolin-4(3H)one, reference compound]	70 µM	52%	
Cc1nc2ccccc2c(=O)n1CC1=CC(C)(C)N([O])C1(C)C [Compound 8, 3-[(1-Oxyl-2,2,5,5-tetramethyl-2,5-dihydro-1H-pyrrol-3-yl)methyl]-2-methylqunazolin-4(3H)-one]			Maximum protection ([1]; 0.3 mM hydrogen peroxide): 0%; IC50 ([1]; 0.3 mM hydrogen peroxide): > 100 µM
Cc1nc2ccccc2c(=O)n1CC1=CC(C)(C)NC1(C)C [Compound 9, 3-[(2,2,5,5-Tetramethyl-2,5-dihydro-1H-pyrrol-3-yl)methyl]-2-methylquinazolin-4(3H)-one]	10 µM	15%	
CC1(C)C=C(CSc2nc3ccccc3c(=O)[nH]2)C(C)(C)N1O [Compound 12, 2-{[(1-Oxyl-2,2,5,5-tetramethyl-2,5-dihydro-1H-pyrrol-3-yl)methyl]thio}quinazolin-4(3H)-one]			melting point: 138 to 140 °C
CC1(C)C=C(CSc2nc3ccccc3c(=O)[nH]2)C(C)(C)N1 [Compound 13, 2-{[(2,2,5,5-Tetramethyl-2,5-dihydro-1H-pyrrol-3-yl)methyl]thio}quinazolin-4(3H)-one]			melting point: 150 to 151 °C
CC1(C)C=C(CSC2=Nc3ccccc3C(=O)C2)CC(C)(C)N1 [Compound 15, 2-{[(2,2,6,6-Tetramethyl-1,2,3,6-tetrahydropyridin-4-yl)methyl]thio}quinolin-4(3H)-one]	10 µM	61%	
CN(C)CCSc1nc2ccccc2c(=O)[nH]1 [Compound 17a]	0.15 µM	68%	IC50 [2]: 2 µM
CN(C)CCCSc1nc2ccccc2c(=O)[nH]1 [Compound 17b, 2-{[3(Dimethylamino)propyl]thio}quinazolin-4(3H)-one]	4.8 µM	65%	IC50 [2]: 6 µM
O=c1[nH]c(SCCN2CCCCC2)nc2ccccc12 [Compound 17c, 2-[(2-Piperidin-1-ylethyl)thio]quinazolin-4(3H)-one]	0.8 µM	62%	IC50 [2]: 2.6 µM
CC1(C)CCCC(C)(C)N1CCSc1nc2ccccc2c(=O)[nH]1 [Compound 17d, 2-{[2-(2,2,6,6-Tetramethylpiperidin-1-yl)ethyl]thio}quinazolin-4(3H)-one]	0.1 µM	69.6%	IC50 [2]: 1.6 µM
CC1(C)C=C(c2nc3ccccc3c(=O)[nH]2)C(C)(C)N1O [Compound 21, 2-(1-Oxyl-2,2,5,5-tetramethyl-2,5-dihydro-1H-pyrrol-3-yl)quinazolin-4(3H)-one]	> 100 µM	0%	
CC1(C)C=C(c2nc3ccccc3c(=O)[nH]2)C(C)(C)N1 [Compound 22, 2-(2,2,5,5-Tetramethyl-2,5 dihydro-1H-pyrrol-3-yl)quinazolin-4(3H)-one]			melting point: 254 to 256 °C
CC1(C)C=C(c2nc3ccccc3c(=O)[nH]2)CC(C)(C)N1O [Compound 23, 2-(1-Oxyl-2,2,6,6-tetramethyl-1,2,3,6-tetrahydropyridin-4-yl)quinazolin-4(3H)-one]	13 µM	50%	
CC1(C)C=C(c2nc3ccccc3c(=O)[nH]2)CC(C)(C)N1 [Compound 24, 2-(2,2,6,6-Tetramethyl-1,2,3,6-tetrahydropyridin-4-yl)quinazolin-4(3H)-one]	12 µM	50%	
